Patent US3960667A, “Antibiotic A23187 and process for preparation thereof” (priority 1975, dated 1976)
Values after ≈ are worked out from the molar mass of the structure shown. Structures can show the parent of a compound that is named as a salt.

Key:
[1] = Solubility; type: physicochemical
[2] = system: Candida albicans; test: Antibiotic activity, agar dilution; type: cell-based; settings: agar dilution (ad), read-out: Minimum inhibitory concentration
From the text: (§1) The novel antibiotic of this invention has an inhibitory action against the growth of microbial organisms, both bacteria and fungi, which are pathogenic to animal and plant life and is therefore useful in suppressing the growth of such organisms. The antibiotic A23187 is useful in wash solutions for sanitation purposes, as in the cleaning of equipment, floors or furnishings of contaminated rooms or laboratories. For such purposes, the antibiotic, or a salt thereof, is conveniently formulated as a solution in one of the lower chlorinated hydrocarbons, as for example, chloroform. […] The preparation of such formulations is readily accomplished by methods known in the art. The antibiotic can be employed in a wide range of concentrations. Because of its relatively high activity, concentratons of 100 to 500 parts per million are generally adequate for most purposes. The letters bd refer to broth dilution and the letters ad refer to agar dilution.

[3] = system: Mycobacterium avium; test: Antibiotic activity, agar dilution; type: cell-based; settings: agar dilution (ad), read-out: Minimum inhibitory concentration
From the text: as §1

[4] = system: Cladosporium resinae; test: Antibiotic activity, agar dilution; type: cell-based; settings: Amorphotheca resinae, agar dilution (ad), read-out: Minimum inhibitory concentration
From the text: as §1

[5] = system: Helminthosporium sativum; test: Antibiotic activity, agar dilution; type: cell-based; settings: agar dilution (ad), read-out: Minimum inhibitory concentration
From the text: as §1

[6] = system: Pullularia sp.; test: Antibiotic activity, agar dilution; type: cell-based; settings: agar dilution (ad), read-out: Minimum inhibitory concentration
From the text: as §1

[7] = system: Leuconostoc citrovorum; test: Antibiotic activity, agar dilution; type: cell-based; settings: agar dilution (ad), read-out: Minimum inhibitory concentration
From the text: as §1

[8] = system: Lactobacillus casei; test: Antibiotic activity, agar dilution; type: cell-based; settings: Lacticaseibacillus casei, agar dilution (ad), read-out: Minimum inhibitory concentration
From the text: as §1

[9] = system: Bacillus subtilis; test: Antibiotic activity, agar dilution; type: cell-based; settings: agar dilution (ad), read-out: Minimum inhibitory concentration
From the text: as §1

[10] = system: Glomerella cingulata; test: Antibiotic activity, agar dilution; type: cell-based; settings: Colletotrichum gloeosporioides, agar dilution (ad), read-out: Minimum inhibitory concentration
From the text: as §1

[11] = system: Colletotrichum pisi; test: Antibiotic activity, agar dilution; type: cell-based; settings: agar dilution (ad), read-out: Minimum inhibitory concentration
From the text: as §1

[12] = system: Trichophyton mentagrophytes; test: Antibiotic activity, agar dilution; type: cell-based; settings: agar dilution (ad), read-out: Minimum inhibitory concentration
From the text: as §1

[13] = system: Ceratostomella ulmi; test: Antibiotic activity, agar dilution; type: cell-based; settings: Ophiostoma ulmi, agar dilution (ad), read-out: Minimum inhibitory concentration
From the text: as §1

[14] = system: Saccharomyces pastorianus; test: Antibiotic activity, agar dilution; type: cell-based; settings: agar dilution (ad), read-out: Minimum inhibitory concentration
From the text: as §1

[15] = system: Botrytis cinerea; test: Antibiotic activity, agar dilution; type: cell-based; settings: agar dilution (ad), read-out: Minimum inhibitory concentration
From the text: as §1

[16] = system: Penicillium expansum; test: Antibiotic activity, agar dilution; type: cell-based; settings: agar dilution (ad), read-out: Minimum inhibitory concentration
From the text: as §1

[17] = Acute toxicity in mice; settings: mouse, in vivo, ip, administered intraperitoneally
Description: The acute toxicity of antibiotic A23187 in mice, expressed as LD50, is about 10 mg/kg of body weight when the antibiotic is administered intraperitoneally.

[18] = system: Pasteurella multocida; test: Antibiotic activity, broth dilution; type: cell-based; settings: broth dilution (bd), read-out: Minimum inhibitory concentration
From the text: as §1

[19] = system: Streptococcus faecalis 80; test: Antibiotic activity, broth dilution; type: cell-based; settings: Enterococcus faecalis, broth dilution (bd), read-out: Minimum inhibitory concentration
From the text: as §1

[20] = system: Staphylococcus aureus 1130; test: Antibiotic activity, broth dilution; type: cell-based; settings: broth dilution (bd), read-out: Minimum inhibitory concentration
From the text: as §1

[21] = system: Mycoplasma gallisepticum; test: Antibiotic activity, broth dilution; type: cell-based; settings: Mycoplasmoides gallisepticum, broth dilution (bd), read-out: Minimum inhibitory concentration
From the text: as §1

[22] = system: Pasteurella hemolytica; test: Antibiotic activity, broth dilution; type: cell-based; settings: broth dilution (bd), read-out: Minimum inhibitory concentration
From the text: as §1

[23] = system: Erysipelas insidiosa; test: Antibiotic activity, broth dilution; type: cell-based; settings: broth dilution (bd), read-out: Minimum inhibitory concentration
From the text: as §1

[24] = system: Staphylococcus aureus 3055; test: Antibiotic activity, broth dilution; type: cell-based; settings: broth dilution (bd), read-out: Minimum inhibitory concentration
From the text: as §1

[25] = Affinity for divalent cations (complex formation); type: binding
From the text: Another characteristic feature of A23187 is its ability to form complexes with certain divalent cations. In experiments to determine the affinity of A23187 for such cations, the following order of reactivity is seen: […]

[26] = Electrometric titration; type: physicochemical; settings: 90% dimethylsulfoxide; electrometric titration in 90 percent dimethylsulfoxide
Description: The molecular weight, calculated from titration data, is approximately 550. A23187 is optically active, having a specific rotation, [α]D^25, of […], at a concentration of 1% in chloroform.

## CNc1ccc2oc(C[C@H]3O[C@@]4(CC[C@H]3C)O[C@H]([C@H](C)C(=O)c3ccc[nH]3)[C@H](C)C[C@H]4C)nc2c1C(=O)O [Antibiotic A23187]
[1]
  solubility in water: relatively insoluble in water
[2]
  MIC: 25 µg/mL (≈ 47.7 µM)
[3]
  MIC: 0.4 µg/mL (≈ 0.764 µM)
[4]
  MIC: 6.25 µg/mL (≈ 11.9 µM)
[5]
  MIC: 25 µg/mL (≈ 47.7 µM)
[6]
  MIC: 1.56 µg/mL (≈ 2.98 µM)
[7]
  MIC: 0.2 µg/mL (≈ 0.382 µM)
[8]
  MIC: 0.78 µg/mL (≈ 1.49 µM)
[9]
  MIC: 0.2 µg/mL (≈ 0.382 µM)
[10]
  MIC: 100 µg/mL (≈ 191 µM)
[11]
  MIC: 6.25 µg/mL (≈ 11.9 µM)
[12]
  MIC: 0.78 µg/mL (≈ 1.49 µM)
[13]
  MIC: 6.25 µg/mL (≈ 11.9 µM)
[14]
  MIC: 1.56 µg/mL (≈ 2.98 µM)
[15]
  MIC: 1.56 µg/mL (≈ 2.98 µM)
[16]
  MIC: 6.25 µg/mL (≈ 11.9 µM)
[17]
  LD50: ~10 mg/kg
[18]
  MIC: 0.39 µg/mL (≈ 0.745 µM)
[19]
  MIC: 0.097 µg/mL (≈ 0.185 µM)
[20]
  MIC: 0.048 µg/mL (≈ 0.0917 µM)
[21]
  MIC: 1.56 µg/mL (≈ 2.98 µM)
[22]
  MIC: 12.5 µg/mL (≈ 23.9 µM)
[23]
  MIC: < 0.048 µg/mL
[24]
  MIC: 0.78 µg/mL (≈ 1.49 µM)
[25]
  affinity for Be^+^+: moderate affinity
  affinity for Cd^+^+: appreciable affinity
  affinity for Co^+^+: moderate affinity
  affinity for Hg^+^+: no apparent affinity
  affinity for Ni^+^+: moderate affinity
  affinity for Zn^+^+: moderate affinity
[25]; Mn, Ca, Mg, Sr, Ba cations
  order of reactivity (affinity) for divalent cations: Mn^+^+ >> Ca^+^+ = Mg^+^+ > Sr^+^+ > Ba^+^+
[25]; divalent cations
  ionophorous properties, specificity: high specificity for divalent cations

## CNc1ccc2oc(CC3OC4(CCC3C)OC(C(C)C(=O)c3ccc[nH]3)C(C)CC4C)nc2c1C(=O)O (stereo not drawn) [mixed calcium-magnesium salt of A23187]
[1]; acetone, methylethyl ketone, diethyl ketone and the like
  solubility in the lower alkyl ketones: very soluble
[1]; methanol, ethanol, isopropanol and the like
  solubility in the lower alcohols: very slightly soluble
[1]; methyl acetate, ethyl acetate, methyl propionate, amyl acetate, methyl butyrate and the like
  solubility in esters formed with the lower alkyl carboxylic acids and lower alcohols: very soluble
[1]; methylene chloride, chloroform, dichloroethane and the like
  solubility in the lower alkyl chlorinated hydrocarbons: very soluble
[1]; pentane, hexane, heptane and the like
  solubility in hydrocarbons: insoluble
[1]
  solubility in water: insoluble
[26]
  pKa: 6.9
